In patent US8455475B2 (Gruenenthal GmbH, priority 2009, dated 2013):

What was measured:
[1] = target: T1, rat B1R (bradykinin receptor 1) (Rattus norvegicus, UniProt P97583); assay: FLIPR Ca2+ assay (Fluo-4) on CHO K1 cells stably transfected with the B1R gene of the rat (rB1R cells): % inhibition at 10 μM / IC50, agonist Des-Arg9-bradykinin; format: cell-based; details: CHO-K1, rat B1R
T1 construct: expressed in transfected cells; host or cells: CHO K1 cells
T1 sequence (P97583 1-337): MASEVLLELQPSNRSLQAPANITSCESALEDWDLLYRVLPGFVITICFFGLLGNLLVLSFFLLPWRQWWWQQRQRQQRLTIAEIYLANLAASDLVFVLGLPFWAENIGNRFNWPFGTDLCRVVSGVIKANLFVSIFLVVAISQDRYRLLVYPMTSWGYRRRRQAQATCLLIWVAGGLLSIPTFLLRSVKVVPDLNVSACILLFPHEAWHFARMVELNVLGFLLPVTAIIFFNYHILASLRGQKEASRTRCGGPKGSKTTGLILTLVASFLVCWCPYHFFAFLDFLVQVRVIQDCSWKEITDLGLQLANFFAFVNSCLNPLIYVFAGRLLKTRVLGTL
Summary of the method: (§1)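 Stably transfected CHO K1 cells loaded with Fluo-4 and read on FLIPR (λex 488, λem 540 nm; peak fluorescence). Test substance (10 μM) added first, then after 10–20 min the agonist at EC80; % inhibition versus maximum achievable inhibition. IC50 from several concentrations, n=2–3, N≥2.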

[2] = target: T2, human B1R (bradykinin receptor 1) (Homo sapiens, UniProt P46663); assay: FLIPR Ca2+ assay (Fluo-4) on CHO K1 cells stably transfected with the human B1R gene (hB1R cells): % inhibition at 10 μM / IC50, agonist Lys-Des-Arg9-bradykinin; format: cell-based; details: CHO-K1, human B1R
T2 construct: expressed in transfected cells; host or cells: CHO K1 cells
T2 sequence (P46663 1-353): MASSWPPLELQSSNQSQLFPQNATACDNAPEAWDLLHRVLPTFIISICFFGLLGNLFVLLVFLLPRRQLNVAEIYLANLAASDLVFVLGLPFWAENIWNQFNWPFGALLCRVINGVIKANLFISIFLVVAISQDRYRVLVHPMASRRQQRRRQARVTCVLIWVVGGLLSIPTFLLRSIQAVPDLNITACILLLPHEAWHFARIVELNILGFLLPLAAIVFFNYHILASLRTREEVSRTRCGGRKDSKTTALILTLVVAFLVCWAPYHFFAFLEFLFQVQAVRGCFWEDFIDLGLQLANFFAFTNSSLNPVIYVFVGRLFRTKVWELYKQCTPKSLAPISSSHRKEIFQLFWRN
Summary of the method: as §1

| inhibition at 10 µM [1] | inhibition at 10 µM [2] | SMILES |
| --- | --- | --- |
| 104% | 49% | Cc1ccc(C(=O)N(C)C2CCc3ccc(C(=O)N4CCC5(CC4)CCN(c4ccncc4)CC5)cc32)c(F)c1 (stereo not shown) [IND_CC-304, 2-Fluoro-N,4-dimethyl-N-[6-(9-pyridin-4-yl-3,9-diazaspiro[5.5]undecane-3-carbonyl)-2,3-dihydro-1H-inden-1-yl]-benzamide] |
| 104% | 67% | Cc1ccc(C(=O)NC2CCc3ccc(C(=O)N4CCC5(CC4)CCN(c4ccncc4)CC5)cc32)c(F)c1 (stereo not shown) [IND_CC-305, 2-Fluoro-4-methyl-N-[6-(9-pyridin-4-yl-3,9-diazaspiro[5.5]undecane-3-carbonyl)-2,3-dihydro-1H-inden-1-yl]-benzamide] |
| 103% | 14% | Cc1cccc(C)c1C(=O)NC1CCc2ccc(C(=O)N3CCC4(CC3)CCN(c3ccc(C(F)(F)F)cc3)CC4)cc21 (stereo not shown) [IND_CC-307, 2,6-Dimethyl-N-[6-[9-[4-(trifluoromethyl)-phenyl]-3,9-diazaspiro[5.5]undecane-3-carbonyl]-2,3-dihydro-1H-inden-1-yl]-benzamide] |
| 106% | 97% | Cc1cccc(C)c1C(=O)NC1c2cc(C(=O)N3CCC4(CC3)CCN(c3ccncc3)CC4)ccc2CC1(C)C (stereo not shown) [IND_CC-308, N-[2,2-Dimethyl-6-(9-pyridin-4-yl-3,9-diazaspiro[5.5]undecane-3-carbonyl)-1,3-dihydro-inden-1-yl]-2,6-dimethyl-benzamide] |
| 104% | 97% | Cc1cccc(C)c1C(=O)NC1CC(C)(C)c2ccc(C(=O)N3CCC4(CC3)CCN(c3ccncc3)CC4)cc21 (stereo not shown) [IND_CC-309, N-[3,3-Dimethyl-6-(3-pyridin-4-yl-3,9-diazaspiro[5.5]undecane-9-carbonyl)-1,2-dihydro-inden-1-yl]-2,6-dimethyl-benzamide] |
| 104% | 100% | Cc1cccc(C)c1C(=O)NC1CCc2ccc(C(=O)N3CCC4(CCN(c5ccncc5)CC4)C3)cc21 (stereo not shown) [IND_CC-310, 2,6-Dimethyl-N-[6-(8-pyridin-4-yl-2,8-diazaspiro[4.5]decane-2-carbonyl)-2,3-dihydro-1H-inden-1-yl]-benzamide] |
| 102% | 44% | COc1ccc(C(=O)NC2CC(C)(C)c3ccc(C(=O)N4CCC5(CC4)CCN(c4ccncc4)CC5)cc32)c(F)c1 (stereo not shown) [IND_CC-312, N-[3,3-Dimethyl-6-(3-pyridin-4-yl-3,9-diazaspiro[5.5]undecane-9-carbonyl)-1,2-dihydro-inden-1-yl]-2-fluoro-4-methoxy-benzamide] |
| 100% | 2% | O=C(NC1CCc2ccc(C(=O)N3CCC4(CCN(Cc5ccc[nH]5)CC4)CC3)cc21)c1ccccc1Cl (stereo not shown) [IND_CC-507, 2-Chloro-N-[6-[9-(1H-pyrrol-2-yl-methyl)-3,9-diazaspiro[5.5]undecane-3-carbonyl]-2,3-dihydro-1H-inden-1-yl]-benzamide] |
| 87% | 25% | Cn1cncc1CN1CCC2(CC1)CCN(C(=O)c1ccc3c(c1)C(NC(=O)c1ccccc1Cl)CC3)CC2 (stereo not shown) [IND_CC-526, 2-Chloro-N-[6-[9-[(3-methyl-3H-imidazol-4-yl)-methyl]-3,9-diazaspiro[5.5]undecane-3-carbonyl]-2,3-dihydro-1H-inden-1-yl]-benzamide] |
| 102% | 24% | Cc1nc(CN2CCC3(CC2)CCN(C(=O)c2ccc4c(c2)C(NC(=O)c2ccccc2Cl)CC4)CC3)c[nH]1 (stereo not shown) [IND_CC-528, 2-Chloro-N-[6-[9-[(2-methyl-1H-imidazol-4-yl)-methyl]-3,9-diazaspiro[5.5]undecane-3-carbonyl]-2,3-dihydro-1H-inden-1-yl]-benzamide] |
| 90% | 49% | N#Cc1ccccc1CN1CCC2(CC1)CCN(C(=O)c1ccc3c(c1)C(NC(=O)c1ccccc1Cl)CC3)CC2 (stereo not shown) [IND_CC-535, 2-Chloro-N-[6-[9-[(2-cyano-phenyl)-methyl]-3,9-diazaspiro[5.5]undecane-3-carbonyl]-2,3-dihydro-1H-inden-1-yl]-benzamide] |
| 104% | 27% | O=C(NC1CCc2ccc(C(=O)N3CCC4(CCN(Cc5ccc(F)c(F)c5)CC4)C3)cc21)c1ccccc1Cl (stereo not shown) [IND_CC-542, 2-Chloro-N-[6-[8-[(3,4-difluoro-phenyl)-methyl]-2,8-diazaspiro[4.5]decane-2-carbonyl]-2,3-dihydro-1H-inden-1-yl]-benzamide] |
| 90% | -2% | Cc1nc[nH]c1CN1CCC2(CC1)CCN(C(=O)c1ccc3c(c1)C(NC(=O)c1ccccc1Cl)CC3)C2 (stereo not shown) [IND_CC-553, 2-Chloro-N-[6-[8-[(5-methyl-3H-imidazol-4-yl)-methyl]-2,8-diazaspiro[4.5]decane-2-carbonyl]-2,3-dihydro-1H-inden-1-yl]-benzamide] |
| 100% | 7% | O=C(NC1CCc2ccc(C(=O)N3CCC4(CCN(Cc5ccc(F)cc5Cl)CC4)C3)cc21)c1ccccc1Cl (stereo not shown) [IND_CC-556, 2-Chloro-N-[6-[8-[(2-chloro-4-fluoro-phenyl)-methyl]-2,8-diazaspiro[4.5]decane-2-carbonyl]-2,3-dihydro-1H-inden-1-yl]-benzamide] |
| 104% | 27% | N#Cc1cccc(CN2CCC3(CC2)CCN(C(=O)c2ccc4c(c2)C(NC(=O)c2ccccc2Cl)CC4)C3)c1 (stereo not shown) [IND_CC-562, 2-Chloro-N-[6-[8-[(3-cyano-phenyl)-methyl]-2,8-diazaspiro[4.5]decane-2-carbonyl]-2,3-dihydro-1H-inden-1-yl]-benzamide] |
| 105% | 20% | O=C(NC1CCc2ccc(C(=O)N3CCC4(CCN(Cc5ccc6nccnc6c5)CC4)C3)cc21)c1ccccc1Cl (stereo not shown) [IND_CC-568, 2-Chloro-N-[6-[8-(quinoxalin-6-yl-methyl)-2,8-diazaspiro[4.5]decane-2-carbonyl]-2,3-dihydro-1H-inden-1-yl]-benzamide] |
| 100% | 43% | O=C(NC1CCc2ccc(C(=O)N3CCC4(CCN(C(=O)C5CC5)CC4)C3)cc21)c1ccccc1Cl (stereo not shown) [IND_CC-573, 2-Chloro-N-[6-[8-(cyclopropanecarbonyl)-2,8-diazaspiro[4.5]decane-2-carbonyl]-2,3-dihydro-1H-inden-1-yl]-benzamide] |
| 101% | 14% | CC(C)(C)CC(=O)N1CCC2(CC1)CCN(C(=O)c1ccc3c(c1)C(NC(=O)c1ccccc1Cl)CC3)C2 (stereo not shown) [IND_CC-574, 2-Chloro-N-[6-[8-(3,3-dimethyl-butanoyl)-2,8-diazaspiro[4.5]decane-2-carbonyl]-2,3-dihydro-1H-inden-1-yl]-benzamide] |
| 96% | 21% | O=C(NC1CCc2ccc(C(=O)N3CCC4(CCN(C(=O)Cc5ccc(Cl)cc5)CC4)C3)cc21)c1ccccc1Cl (stereo not shown) [IND_CC-577, 2-Chloro-N-[6-[8-[2-(4-chlorophenyl)-acetyl]-2,8-diazaspiro[4.5]decane-2-carbonyl]-2,3-dihydro-1H-inden-1-yl]-benzamide] |
| 98% | 99% | COc1cc(C)c(S(=O)(=O)NC2CCc3ccc(C(=O)N4CCC5(CC4)CCN(c4ccncc4)CC5)cc32)c(C)c1 (stereo not shown) [Ind_CC-001, 4-methoxy-2,6-dimethyl-N-[6-(9-pyridin-4-yl-3,9-diazaspiro[5.5]undecane-3-carbonyl)-2,3-dihydro-1H-inden-1-yl]-benzenesulfonic acid amide] |
| 85% | 97% | O=C(NC1CCc2ccc(C(=O)N3CCC4(CC3)CCN(c3ccncc3)CC4)cc21)c1ccccn1 (stereo not shown) [Ind_CC-002, N-[6-(9-pyridin-4-yl-3,9-diazaspiro[5.5]undecane-3-carbonyl)-2,3-dihydro-1H-inden-1-yl]-pyridine-2-carboxylic acid amide] |
| 101% | 99% | O=C(NC1CCc2ccc(C(=O)N3CCC4(CC3)CCN(c3ccncc3)CC4)cc21)c1ccccc1C(F)(F)F (stereo not shown) [Ind_CC-003, N-[6-(9-pyridin-4-yl-3,9-diazaspiro[5.5]undecane-3-carbonyl)-2,3-dihydro-1H-inden-1-yl]-2-(trifluoromethyl)-benzamide] |
| 98% | 99% | O=C(NC1CCc2ccc(C(=O)N3CCC4(CC3)CCN(c3ccncc3)CC4)cc21)c1sccc1Cl (stereo not shown) [Ind_CC-004, 3-chloro-N-[6-(9-pyridin-4-yl-3,9-diazaspiro[5.5]undecane-3-carbonyl)-2,3-dihydro-1H-inden-1-yl]-thiophene-2-carboxylic acid amide] |
